How the values were obtained:
rodent = conditions: in vivo; cited from earlier work
[1] = system: mRNA expressed from the genes (A) to (D) in rat liver; experiment: Behavior of genes (mRNA expression level, oligo-DNA microarray) in rat liver after 28-day oral administration; format: in vivo; conditions: for Behavior of gene caused by administration of chemical substance, Gene No. 4846 / Behavior of gene caused by administration of chemical substance, Gene No. 2026 / Behavior of gene caused by administration of chemical substance, Gene No. 4218 / Behavior of gene caused by administration of chemical substance, Gene No. 6182 / Behavior of gene caused by administration of chemical substance, Gene No. 5600: gene group (A); for Behavior of gene caused by administration of chemical substance, Gene No. 4846: Unigene No. Rn.144554; for Behavior of gene caused by administration of chemical substance, Gene No. 2026 / Behavior of gene caused by administration of chemical substance, Gene No. 4218: Unigene No. Rn.167075; for Behavior of gene caused by administration of chemical substance, Gene No. 6182: Unigene No. Rn.5834; for Behavior of gene caused by administration of chemical substance, Gene No. 5600: Unigene No. Rn.9836; for Behavior of gene caused by administration of chemical substance, Gene No. 1494 / Behavior of gene caused by administration of chemical substance, Gene No. 2045 / Behavior of gene caused by administration of chemical substance, Gene No. 2203: gene group (B); for Behavior of gene caused by administration of chemical substance, Gene No. 1494: Unigene No. Rn.1430; for Behavior of gene caused by administration of chemical substance, Gene No. 2045: Unigene No. Rn.19329; for Behavior of gene caused by administration of chemical substance, Gene No. 2203: Unigene No. Rn.21240; for Behavior of gene caused by administration of chemical substance, Gene No. 533 / Behavior of gene caused by administration of chemical substance, Gene No. 725 / Behavior of gene caused by administration of chemical substance, Gene No. 1163 / Behavior of gene caused by administration of chemical substance, Gene No. 4973 / Behavior of gene caused by administration of chemical substance, Gene No. 4095 / Behavior of gene caused by administration of chemical substance, Gene No. 1334 / Behavior of gene caused by administration of chemical substance, Gene No. 6620 / Behavior of gene caused by administration of chemical substance, Gene No. 6303 / Behavior of gene caused by administration of chemical substance, Gene No. 5878 / Behavior of gene caused by administration of chemical substance, Gene No. 1131 / Behavior of gene caused by administration of chemical substance, Gene No. 1562 / Behavior of gene caused by administration of chemical substance, Gene No. 1741 / Behavior of gene caused by administration of chemical substance, Gene No. 893 / Behavior of gene caused by administration of chemical substance, Gene No. 6026 / Behavior of gene caused by administration of chemical substance, Gene No. 154 / Behavior of gene caused by administration of chemical substance, Gene No. 1993 / Behavior of gene caused by administration of chemical substance, Gene No. 813 / Behavior of gene caused by administration of chemical substance, Gene No. 2494 / Behavior of gene caused by administration of chemical substance, Gene No. 2546 / Behavior of gene caused by administration of chemical substance, Gene No. 3776 / Behavior of gene caused by administration of chemical substance, Gene No. 3929 / Behavior of gene caused by administration of chemical substance, Gene No. 1119 / Behavior of gene caused by administration of chemical substance, Gene No. 6742 / Behavior of gene caused by administration of chemical substance, Gene No. 5634: gene group (C); for Behavior of gene caused by administration of chemical substance, Gene No. 533: Unigene No. Rn.106184; for Behavior of gene caused by administration of chemical substance, Gene No. 725: Unigene No. Rn.108075; for Behavior of gene caused by administration of chemical substance, Gene No. 1163: Unigene No. Rn.11766; for Behavior of gene caused by administration of chemical substance, Gene No. 4973: Unigene No. Rn.118529; for Behavior of gene caused by administration of chemical substance, Gene No. 4095: Unigene No. Rn.119024; for Behavior of gene caused by administration of chemical substance, Gene No. 1334 / Behavior of gene caused by administration of chemical substance, Gene No. 6620: Unigene No. Rn.120914; for Behavior of gene caused by administration of chemical substance, Gene No. 6303: Unigene No. Rn.123063; for Behavior of gene caused by administration of chemical substance, Gene No. 5878: Unigene No. Rn.143213; for Behavior of gene caused by administration of chemical substance, Gene No. 1131: Unigene No. Rn.144946; for Behavior of gene caused by administration of chemical substance, Gene No. 1562: Unigene No. Rn.14744; for Behavior of gene caused by administration of chemical substance, Gene No. 1741: Unigene No. Rn.1647; for Behavior of gene caused by administration of chemical substance, Gene No. 893: Unigene No. Rn.164817; for Behavior of gene caused by administration of chemical substance, Gene No. 6026: Unigene No. Rn.167685; for Behavior of gene caused by administration of chemical substance, Gene No. 154: Unigene No. Rn.185941; for Behavior of gene caused by administration of chemical substance, Gene No. 1993: Unigene No. Rn.18728; for Behavior of gene caused by administration of chemical substance, Gene No. 813: Unigene No. Rn.201760; for Behavior of gene caused by administration of chemical substance, Gene No. 2494: Unigene No. Rn.23969; for Behavior of gene caused by administration of chemical substance, Gene No. 2546: Unigene No. Rn.24561; for Behavior of gene caused by administration of chemical substance, Gene No. 3776: Unigene No. Rn.43232; for Behavior of gene caused by administration of chemical substance, Gene No. 3929: Unigene No. Rn.4620; for Behavior of gene caused by administration of chemical substance, Gene No. 1119: Unigene No. Rn.9757; for Behavior of gene caused by administration of chemical substance, Gene No. 6742: Unigene No. Rn.9779; for Behavior of gene caused by administration of chemical substance, Gene No. 5634: Unigene No. Rn.9862; for Behavior of gene caused by administration of chemical substance, Gene No. 5726: gene group (D), Unigene No. Rn.9939
Method in brief: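 Male F344 SPF rats, 5 weeks old, four per group, dosed by oral gavage once daily for 28 days with test chemical or matched-volume solvent. Liver total RNA profiled on oligo-DNA microarray. Change ≥1.5-fold or ≤1/1.5 versus vehicle counted as significant if its direction matched that seen with other carcinogens.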

liver = conditions: in vivo; cited from earlier work

Row | Compound | Carcinogenicity (rodent) | Behavior of gene caused by administration of chemical substance, Gene No. 4846 [1] | Behavior of gene caused by administration of chemical substance, Gene No. 2026 [1] | Behavior of gene caused by administration of chemical substance, Gene No. 4218 [1] | Behavior of gene caused by administration of chemical substance, Gene No. 6182 [1] | Behavior of gene caused by administration of chemical substance, Gene No. 5600 [1] | Behavior of gene caused by administration of chemical substance, Gene No. 1494 [1] | Behavior of gene caused by administration of chemical substance, Gene No. 2045 [1] | Behavior of gene caused by administration of chemical substance, Gene No. 2203 [1] | Behavior of gene caused by administration of chemical substance, Gene No. 533 [1] | Behavior of gene caused by administration of chemical substance, Gene No. 725 [1] | Behavior of gene caused by administration of chemical substance, Gene No. 1163 [1] | Behavior of gene caused by administration of chemical substance, Gene No. 4973 [1] | Behavior of gene caused by administration of chemical substance, Gene No. 4095 [1] | Behavior of gene caused by administration of chemical substance, Gene No. 1334 [1] | Behavior of gene caused by administration of chemical substance, Gene No. 6620 [1] | Behavior of gene caused by administration of chemical substance, Gene No. 6303 [1] | Behavior of gene caused by administration of chemical substance, Gene No. 5878 [1] | Behavior of gene caused by administration of chemical substance, Gene No. 1131 [1] | Behavior of gene caused by administration of chemical substance, Gene No. 1562 [1] | other results
1 | Nc1ccc(N)c(Cl)c1.O=S(=O)(O)O [TS058, 2-Chloro-p-phenylenediamine SO4] | C− | − | − | − | − | − | − | + | − | − | − | + | − | − | − | − | − | − | − | − | Behavior of gene caused by administration of chemical substance, Gene No. 1741 [1]: −; Behavior of gene caused by administration of chemical substance, Gene No. 893 [1]: −; Behavior of gene caused by administration of chemical substance, Gene No. 6026 [1]: −; Behavior of gene caused by administration of chemical substance, Gene No. 154 [1]: +; Behavior of gene caused by administration of chemical substance, Gene No. 1993 [1]: −; Behavior of gene caused by administration of chemical substance, Gene No. 813 [1]: −; Behavior of gene caused by administration of chemical substance, Gene No. 2494 [1]: +; Behavior of gene caused by administration of chemical substance, Gene No. 2546 [1]: +; Behavior of gene caused by administration of chemical substance, Gene No. 3776 [1]: −; Behavior of gene caused by administration of chemical substance, Gene No. 3929 [1]: −; Behavior of gene caused by administration of chemical substance, Gene No. 1119 [1]: +; Behavior of gene caused by administration of chemical substance, Gene No. 6742 [1]: −; Behavior of gene caused by administration of chemical substance, Gene No. 5634 [1]: +; Behavior of gene caused by administration of chemical substance, Gene No. 5726 [1]: −; Liver carcinogenicity (liver): Cr−
2 | Cc1cc(N)ccc1N.O=S(=O)(O)O [TS060, 2,5-Toluenediamine SO4] | C− | − | − | − | − | − | − | − | − | − | − | + | − | − | − | − | − | − | + | − | Behavior of gene caused by administration of chemical substance, Gene No. 1741 [1]: −; Behavior of gene caused by administration of chemical substance, Gene No. 893 [1]: +; Behavior of gene caused by administration of chemical substance, Gene No. 6026 [1]: −; Behavior of gene caused by administration of chemical substance, Gene No. 154 [1]: −; Behavior of gene caused by administration of chemical substance, Gene No. 1993 [1]: −; Behavior of gene caused by administration of chemical substance, Gene No. 813 [1]: −; Behavior of gene caused by administration of chemical substance, Gene No. 2494 [1]: −; Behavior of gene caused by administration of chemical substance, Gene No. 2546 [1]: −; Behavior of gene caused by administration of chemical substance, Gene No. 3776 [1]: −; Behavior of gene caused by administration of chemical substance, Gene No. 3929 [1]: +; Behavior of gene caused by administration of chemical substance, Gene No. 1119 [1]: −; Behavior of gene caused by administration of chemical substance, Gene No. 6742 [1]: −; Behavior of gene caused by administration of chemical substance, Gene No. 5634 [1]: +; Behavior of gene caused by administration of chemical substance, Gene No. 5726 [1]: −; Liver carcinogenicity (liver): Cr−

Reference: patent publication US20110039721A1, “METHOD FOR PREDICTION ABOUT CARCINOGENICITY OF SUBSTANCE IN RODENT” (Chemicals Evaluation and Research Institute, priority 2007, published 2011)
